Laboratory results: patent publication EP0640601B1, “BENZAMIDE DERIVATIVE” (HOKURIKU SEIYAKU CO., LTD., priority 1991, dated 1992)
Structures can show the parent of a compound that is named as a salt. Where two headings read alike, the source gives them in different places.

Test system: gastrointestinal motility
Test: Effects on gastrointestinal motility in conscious dog (force transducers implanted on stomach and colon, motor index)
Assay type: in vivo
Conditions: Canis lupus familiaris, iv, 20 min, about two hours after feeding, motor index for twenty minutes before and after administration; for change in vivo at 1 mg/kg: dose 1 mg/kg i.v.; for change in vivo at 0.1 mg/kg: dose 0.1 mg/kg i.v.
Description: Under systemical anesthesia, force transducers were chronically implanted to the stomach and the colon of the adult male or female dogs in a direction to measure circular muscle contraction according to the method of Ito et al. (Japanese Journal of Smooth Muscle Research, 13, 33, 1976). A silicone tube chronically attached into jugular vein for intravenous administration of test compounds. After the animal was recovered from the operation, test compounds were administered at about two hours after feeding while gastrointestinal motility was measured. The gastrointestinal motility was indicated as motor index, and the effects of test compounds were estimated by the change of motor index for twenty minutes before and after the administration. […]

[1] = colon, read-out: Change of Motor Index (%) Colon
[2] = stomach, read-out: Change of Motor Index (%) Stomach

CCOC(=O)CN1[C@@H]2CC[C@H]1C[C@@H](NC(=O)c1cc(Cl)c(N)cc1OC)C2 [Example 32, Ethyl endo-[3-(4-amino-5-chloro-2-methoxybenzamido)-8-azabicyclo[3.2.1]oct-8-yl]acetate]
change in vivo at 1 mg/kg [1]: 158%
change in vivo at 1 mg/kg [2]: 177%

CCOc1cc(N)c(Cl)cc1C(=O)NC1CC2CCCC(C1)N2CC(=O)O (stereo not drawn) [Example 41, endo-[3-(4-Amino-5-chloro-2-ethoxybenzamido)-9-azabicyclo[3.3.1]non-9-yl]acetic acid hydrochloride]
change in vivo at 1 mg/kg [1]: 172%
change in vivo at 1 mg/kg [2]: 118%

COc1cc(N)c(Cl)cc1C(=O)NC1CC2CCC(C1)N2CC(=O)O (stereo not drawn) [Example 43, endo-[3-(4-Amino-5-chloro-2-methoxybenzamido)-8-azabicyclo[3.2.1]oct-8-yl]acetic acid hydrochloride]
change in vivo at 1 mg/kg [1]: 505%
change in vivo at 1 mg/kg [2]: 166%

COc1cc(N)c(Cl)cc1C(=O)N[C@H]1C[C@H]2CCC[C@@H](C1)N2CC(=O)O [Example 34, endo-[3-(4-Amino-5-chloro-2-methoxybenzamido)-9-azabicyclo[3.3.1]non-9-yl]acetic acid hydrochloride]
change in vivo at 1 mg/kg [1]: 192%
change in vivo at 1 mg/kg [2]: 187%

CCOC(=O)CCCN1[C@@H]2CCC[C@H]1C[C@@H](NC(=O)c1cc(Cl)c(N)cc1OC)C2 [Example 24, Ethyl endo-4-[3-(4-amino-5-chloro-2-methoxybenzamido)-9-azabicyclo[3.3.1]non-9-yl]butyrate]
change in vivo at 0.1 mg/kg [1]: 135%
change in vivo at 0.1 mg/kg [2]: 116%

COc1cc(N)c(Cl)cc1C(=O)N[C@H]1C[C@H]2CCC[C@@H](C1)N2CCCCCC(=O)O [Example 36, endo-6-[3-(4-Amino-5-chloro-2-methoxybenzamido)-9-azabicyclo[3.3.1]non-9-yl]hexanoic acid hydrochloride]
change in vivo at 1 mg/kg [1]: 120%
change in vivo at 1 mg/kg [2]: 196%

CCOC(=O)CCCCN1[C@@H]2CCC[C@H]1C[C@@H](NC(=O)c1cc(Cl)c(N)cc1OC)C2 [Example 28, Ethyl endo-5-[3-(4-amino-5-chloro-2-methoxybenzamido)-9-azabicyclo[3.3.1]non-9-yl]valerate]
change in vivo at 1 mg/kg [1]: 164%
change in vivo at 1 mg/kg [2]: 142%

CCOC(=O)CN1CCC(NC(=O)c2cc(Cl)c(N)cc2OC)CC1 [Example 46, Ethyl [4-(4-amino-5-chloro-2-methoxybenzamido)piperidino]acetate hydrochloride]
change in vivo at 1 mg/kg [1]: 166%
change in vivo at 1 mg/kg [2]: 182%

COc1cc(N)c(Cl)cc1C(=O)N[C@H]1C[C@H]2CCC[C@@H](C1)N2CCCC(=O)O [Example 35, endo-4-[3-(4-Amino-5-chloro-2-methoxybenzamido)-9-azabicyclo[3.3.1]non-9-yl]butyric acid hydrochloride]
change in vivo at 1 mg/kg [1]: 136%
change in vivo at 1 mg/kg [2]: 187%

COc1cc(N)c(Cl)cc1C(=O)N[C@H]1C[C@H]2CCC[C@@H](C1)N2CCC(=O)O [Example 38, endo-3-[3-(4-Amino-5-chloro-2-methoxybenzamido)-9-azabicyclo[3.3.1]non-9-yl]propionic acid hydrochloride]
change in vivo at 1 mg/kg [1]: 140%
change in vivo at 1 mg/kg [2]: 146%

COc1cc(N)c(Cl)cc1C(=O)N[C@H]1CCN(CC(=O)O)C[C@H]1OC (relative stereo) [Example 64, cis-[4-(4-Amino-5-chloro-2-methoxybenzamido)-3-methoxypiperidino]acetic acid]
change in vivo at 0.1 mg/kg [1]: 234%
change in vivo at 0.1 mg/kg [2]: 200%

COc1cc(N)c(Cl)cc1C(=O)NC1CCN(CC(=O)O)CC1 [Example 58, [4-[(4-Amino-5-chloro-2-methoxybenzamido)piperidino]acetic acid hydrochloride]
change in vivo at 0.1 mg/kg [1]: 218%
change in vivo at 0.1 mg/kg [2]: 181%

CCOC(=O)CN1[C@@H]2CCC[C@H]1C[C@@H](NC(=O)c1cc(Cl)c(N)cc1OC)C2 [Example 23, Ethyl endo-[3-(4-amino-5-chloro-2-methoxybenzamido)-9-azabicyclo[3.3.1]non-9-yl]acetate]
change in vivo at 1 mg/kg [1]: 133%
change in vivo at 1 mg/kg [2]: 134%

CCOC(=O)CN1[C@@H]2CC[C@H]1C[C@H](NC(=O)c1cc(Cl)c(N)cc1OC)C2 [Example 33, Ethyl exo-[3-(4-amino-5-chloro-2-methoxybenzamido)-8-azabicyclo[3.2.1]oct-8-yl]acetate]
change in vivo at 1 mg/kg [1]: 117%
change in vivo at 1 mg/kg [2]: 147%

CCOC(=O)CCCCCN1[C@@H]2CCC[C@H]1C[C@@H](NC(=O)c1cc(Cl)c(N)cc1OC)C2 [Example 25, Ethyl endo-6-[3-(4-amino-5-chloro-2-methoxybenzamido)-9-azabicyclo[3.3.1]non-9-yl]hexanoate]
change in vivo at 1 mg/kg [1]: 133%
change in vivo at 1 mg/kg [2]: 181%

CCOC(=O)CCN1[C@@H]2CCC[C@H]1C[C@@H](NC(=O)c1cc(Cl)c(N)cc1OC)C2 [Example 27, Ethyl endo-3-[3-(4-amino-5-chloro-2-methoxybenzamido)-9-azabicyclo[3.3.1]non-9-yl]propionate]
change in vivo at 0.1 mg/kg [1]: 134%
change in vivo at 0.1 mg/kg [2]: 113%

COc1cc(N)c(Cl)cc1C(=O)NC1CCN(C(C)C(=O)O)CC1 (stereo not drawn) [Example 63, 2-[4-(4-Amino-5-chloro-2-methoxybenzamido)piperidino]propionic acid]
change in vivo at 1 mg/kg [1]: 157%
change in vivo at 1 mg/kg [2]: 130%

COc1cc(N)c(Cl)cc1C(=O)N[C@H]1C[C@H]2CCC[C@@H](C1)N2CCCCC(=O)O [Example 39, endo-5-[3-(4-Amino-5-chloro-2-methoxybenzamido)-9-azabicyclo[3.3.1]non-9-yl]valeric acid hydrochloride]
change in vivo at 0.1 mg/kg [1]: 159%
change in vivo at 0.1 mg/kg [2]: 135%
